Assay results published in patent US20070098735A1, “Methods for the Elimination of Pathogens and Other Particulate Agents” (priority 2005, published 2007).

Legend:
[1] = tested on: CD4+ T cells purified from spleens of DO 11.10 mice; experiment: Proliferation of CD4+ T cells after MHC-II presentation of OVA-coated yeast by macrophages (FACS); format: cell-based; details: macrophages treated with HSP70 100 μg/ml and OVA-coated yeast
Description: (§1) Proliferation of CD4+ T cells and INF-γ (interferon gamma) release. Unlabeled S. cerevisiae (80 μg) was incubated with excess chicken ovary albumin (OVA) at 37° C. for 1 hour and washed repeatedly to eliminate free OVA protein. S. cerevisiae-OVA complexes (OVA-coated yeast) were administered to macrophages treated with or without HSP70. Macrophages were then washed and irradiated at 12,000 rads and assessed for viability by trypan blue exclusion. Subsequently, they were co-cultured with CD4+ T lymphocytes that were purified from spleens of DO 11.10 mice and labeled with carboxyfluoroscein succinimidyl ester (CSFE). […] Following the 48-hour incubation, proliferation of CD4+ cells was determined with FACS and IFN-γ release in the supernatant was tested by enzyme-linked immunosorbent assay (ELISA; Pierce, Ill.).
(§2) Alexafluor labeled S. cerevisiae were coated with whole ovalbumin (OVA) protein 1 mg/ml by co-incubation at 37° C. for 20 minutes and washed until free OVA protein was removed (washes were tested by gel electrophoresis using SDS-PAGE and immunoblotting). […] Resultant proliferation of the CSFE-labeled CD4+ was measured by FACS as an indirect measure of the amount of OVA protein processed and its peptide epitope presented in context of MHC-II. […]

[2] = tested on: CD4+ T cells purified from spleens of DO 11.10 mice (IFN-γ); experiment: IFN-γ release by CD4+ T cells (ELISA); format: cell-based; details: compared to ova-coated yeast alone or HSP70 given alone
Description: as §1, §2

[3] = tested on: full thickness surgical wounds on the dorsum of BALB/cJ mice; experiment: Closure of full thickness surgical wounds, percent wound closure; format: in vivo
Description: Surgery and Treatment. Mice were anesthetized using Ketamine (2.0 mg/mouse) and Xylazine (0.1 mg/mouse) were administered intraperitoneally (IP) and the dorsal skin was shaved. After sterile prepping of the area, a full thickness circular wound, 8 mm diameter, was made on the dorsal skin using a disposable biopsy punch (Miltex Inc, York, Pa.) on the midline of the dorsum approximately at the iliac crest. The mice were then randomly assigned into the treatment groups. Initial wound measurements were performed while the mice were still anesthetized. Mice were then treated on days 0, 2, 4, and 6 unless otherwise specified. All agents used as treatment were diluted in 0.5 ml of PBS and injected using a 25-gauge needle in the subcutaneous space in the nape of the neck. The surgical procedures, post-operative monitoring, and safety concerns were approved by the Institutional Animal Care and Usage Committee.
Measurements and Analysis. Wound healing of open wounds is a complex process with many parameters to consider. […] The wound surface area was determined by measuring the craniocaudal and lateromedial distances using vernier calipers in perpendicular axis on days 0, 2, 4, 6, 9, and 11 postoperatively unless noted. Changes in wound area were expressed as percent wound closure. Wound closure data was plotted as average percent wound closure ±SEM unless otherwise noted. All calculations and data analysis were performed using Microsoft Excel and Sigma Plot. Sigma Plot was used to perform Student's t-tests for reported P values.
Full thickness surgical wounds were created on the dorsum of BALB/cJ mice as described in Methods. Wounds were made on day 0. Subsequently, the wounds were treated with exogenous injections of HSP70, HSP90, gp96 (30 μg/dose) or buffer administered subcutaneously (SC) on days 0, 2, 4 and 6 following surgery (FIG. 6A). The wounds were measured on days 0, 2, 4, 6, 9, 11 unless otherwise noted. Wounds were measured serially, percent wound closure was calculated and plotted against time in order to quantitate the rate of healing by secondary intention. […] Data is plotted as average percent wound closure ±SEM on days indicated. Two mice from each treatment group (PBS (n=12), HSP70 (n=11), HSP90 (n=12), and gp96 (n=11)) were sacrificed for histology on days 2, 4, and 6 post-surgery (data not shown). The P values obtain using the Student's t-test.
Results are of average percent wound closure ±SEM on day 2 post surgery. The *P values were obtained using the Student's t-test by comparing HSP treatment to all of the non-HSP control treatments. The least significant P value was reported. […] Doses higher than 50 μg/dose were not tested.

[4] = tested on: macrophages

Substance: HSP70: heat shock protein purified from murine livers, prepared as a complex with endogenous peptide
- CD4+ proliferation [1]: 20%
- IFN-γ production by CD4+ cells [2]: increase in their ability to produce IFN-γ
- wound closure compared to controls ([3]; 5 μg/dose and 50 μg/dose, day 2): significant wound closure
- wound healing at Day 11 ([3]; 30 μg/dose SC on days 0, 2, 4 and 6): completely healed
- dose with the most significant difference in wound closure ([3]; doses 5, 30, 50 μg/dose tested): 30 μg/dose
- cytotoxicity of HSP-treatment (trypan blue exclusion) [4]: not cytotoxic
